This assay has as its system HCV 1b genotype. The assay is described as follows: Cell-based luciferase reporter HCV (Ib) RNA replication assay (Huh-ET replicon cells). Particulars: Hepatitis C virus, 96 h; HCV 1b genotype replicon, 4 days incubation, luciferase readout. From the text: Cell-Based Luciferase Reporter HCV (Ib) RNA Replication Assay Cell Culture
Replicon cell lines Huh-5.2 are derived from the Huh-7 hepatocarcinoma cell line are maintained in culture as generally described in Krieger, N; Lohmann, V; Bartenschlager, R. Enhancement of hepatitis C virus RNA replication by cell culture-adaptive mutations. J. Virol. 2001, 75, 4614-4624. The Huh-5.2 cells contain the highly cell culture-adapted replicon I389 Luc-ubi-neo/NS3-375.1 construct that carries, in addition to the neomycin gene, an integrated copy to the firefly luciferase gene (Krieger, N; Lohmann, V; Bartenschlager, R. Enhancement of hepatitis C virus RNA replication by cell culture-adaptive mutations. J. Virol. 2001, 75, 4614-4624). This cell line allows measurement of HCV RNA replication and translation by measuring luciferase activity. It has been previously shown that the luciferase activity tightly follows the replicon RNA level in these cells (Krieger, N; Lohmann, V; Bartenschlager, R. Enhancement of hepatitis C virus RNA replication by cell culture-adaptive mutations. J. Virol. 2001, 75, 4614-4624). The Huh-ET cell line has the same features as those mentioned for Huh-5.2 cell line, except that ET cells are more robust and contain an adaptative mutation in the HCV NS4B gene instead of NS5A. Both cell lines are maintained in cultures at a sub-confluent level (<85%) as the level of replicon RNA is highest in actively proliferating cells. The culture media used for cell passaging consist of DMEM (Gibco BRL Laboratories, Mississauga, ON, Canada) supplemented with 10% foetal bovine serum with 1% penicilin/streptomycin, 1% glutamine, 1% sodium pyruvate, 1% non-essential amino acids, and 180 μg/ml of G418 final concentration. Cells are incubated at 37° C., in an atmosphere of 5% CO2 and passaged twice a week to maintain sub-confluence.
Approximately 3000 viable Huh-ET cells (100 μl) are plated per well in a white opaque 96-well microtiter plate. The cell culture media used for the assay is the same as described above except that it contains no G418 and no phenol red. After an incubation period of 3-4 hours at 37° C. in a 5% CO2 incubator, compounds (100 μl) are added at various concentrations. Cells are then further incubated for 4 days at 37° C. in a 5% CO2 incubator. Thereafter, the culture media is removed and cells are lysed by the addition of 95 μL of the luciferase buffer (luciferin substrate in buffered detergent). Cell lysates are incubated at room temperature and protected from direct light for at least 10 minutes. Plates are read for luciferase counts using a luminometer (Wallac MicroBeta Trilux, Perkin Elmer™, MA, USA).
The 50% inhibitory concentrations (IC50s) for inhibitory effect are determined from dose response curves using eleven concentrations per compound in duplicate. Curves are fitted to data points using nonlinear regression analysis, and IC50s are interpolated from the resulting curve using GraphPad Prism software, version 2.0 (GraphPad Software Inc., San Diego, Calif., USA).
EC50 ranges are presented in micromolar as follows: μM+++<=0.005<++<=5.0<+.
Background: In a reporter assay the amount or activity of a reporter protein is the signal.
Turning to `COC(=O)N[C@H](C(=O)N1CCC[C@H]1c1ncc(C#Cc2ccc(C#Cc3cnc([C@@H]4CCCN4C(=O)[C@@H](NC(=O)OC)C(C)C)[nH]3)c3c2OCO3)[nH]1)C(C)C` [Compound 2], the IC50 was at most 5 nM.

As to `COC(=O)N[C@H](C(=O)N1CCC[C@H]1c1ncc(C#Cc2ccc(C#Cc3cnc([C@@H]4CCCN4C(=O)[C@@H](NC(=O)OC)C(C)C)[nH]3)s2)[nH]1)C(C)C` [Compound 3], the IC50 was at most 5 nM.

`[2H]c1c([2H])c(C#Cc2cnc([C@@H]3C[C@H](C)CN3C(=O)[C@@H](NC(=O)OC)C(C)C)[nH]2)c([2H])c([2H])c1C#Cc1cnc([C@@H]2C[C@H](C)CN2C(=O)[C@@H](NC(=O)OC)C(C)C)[nH]1` [Compound 5] came in with an IC50 of at most 5 nM.

Molecule `COC(=O)N[C@H](C(=O)N1C[C@@H](C)C[C@H]1c1nc(C#Cc2ccc3cc(C#Cc4c[nH]c([C@@H]5C[C@H](C)CN5C(=O)[C@@H](NC(=O)OC)C(C)C)n4)ccc3c2)c[nH]1)C(C)C` [Compound 6] returned a 50% inhibitory concentration (IC50) of at most 5 nM.

As to `COC(=O)N[C@H](C(=O)N1C[C@@H](C)C[C@H]1c1nc(C#Cc2ccc(C#Cc3c[nH]c([C@@H]4C[C@H](C)CN4C(=O)[C@@H](NC(=O)OC)[C@@H](C)OC)n3)cc2)c[nH]1)[C@@H](C)OC` [Compound 7], the IC50 is at most 5 nM.

Molecule `COC(=O)N[C@H](C(=O)N1C[C@@H](C)C[C@H]1c1ncc(C#Cc2cc(C)c(C#Cc3cnc([C@@H]4C[C@H](C)CN4C(=O)[C@@H](NC(=O)OC)C(C)C)[nH]3)cc2C)[nH]1)C(C)C` [Compound 8] registered an IC50 of at most 5 nM.

For `COC(=O)N[C@H](C(=O)N1C[C@H](C)C[C@H]1c1nc(C#Cc2ccc(C#Cc3c[nH]c([C@@H]4C[C@@H](C)CN4C(=O)[C@@H](NC(=O)OC)C(C)C)n3)cc2)c[nH]1)C(C)C` [Compound 9], the IC50 is at most 5 nM.

For the molecule `COC(=O)N[C@H](C(=O)N1C[C@@H](C)C[C@H]1c1ncc(C#Cc2cc3sc(C#Cc4cnc([C@@H]5C[C@H](C)CN5C(=O)[C@@H](NC(=O)OC)C(C)C)[nH]4)cc3s2)[nH]1)C(C)C` [Compound 10], the IC50 is at most 5 nM.

Molecule `COC(=O)N(C)[C@H](C(=O)N1C[C@@H](C)C[C@H]1c1ncc(C#Cc2ccc(C#Cc3cnc([C@@H]4C[C@H](C)CN4C(=O)[C@H](C(C)C)N(C)C(=O)OC)[nH]3)cc2)[nH]1)C(C)C` [Compound 11] showed an IC50 of at most 5 nM.

Molecule `COC(=O)N[C@H](C(=O)N1C[C@@H](C)C[C@H]1c1ncc(C#Cc2ccc(C#Cc3cnc([C@@H]4C[C@H](C)CN4C(=O)[C@H](C(C)C)N(C)C(=O)OC)[nH]3)cc2)[nH]1)C(C)C` [Compound 12] yielded an IC50 of at most 5 nM.

Regarding `COC(=O)N[C@H](C(=O)N1CCC[C@H]1c1nc(C#Cc2ccc(C#Cc3c[nH]c([C@@H]4CCCN4C(=O)[C@@H](NC(=O)OC)C(C)C)n3)c3ocnc23)c[nH]1)C(C)C` [Compound 13], the IC50 is at most 5 nM.

As to `COC(=O)N[C@H](C(=O)N1CCC[C@H]1c1nc(C#Cc2cc3sc(C#Cc4c[nH]c([C@@H]5CCCN5C(=O)[C@@H](NC(=O)OC)C(C)C)n4)cc3s2)c[nH]1)C(C)C` [Compound 14], the IC50 was at most 5 nM.

In turn, `COC(=O)N[C@H](C(=O)N1CCC[C@H]1c1nc(C#CC#Cc2c[nH]c([C@@H]3CCCN3C(=O)[C@@H](NC(=O)OC)C(C)C)n2)c[nH]1)C(C)C` [Compound 15] displayed an IC50 of 5 to 5000 nM.

`COC(=O)N[C@H](C(=O)N1C[C@@H](C)C[C@H]1c1nc(C#Cc2ccc(C#Cc3c[nH]c([C@@H]4C[C@H](C)CN4C(=O)[C@@H](NC(=O)OC)C(C)C)n3)c(C)c2)c[nH]1)C(C)C` [Compound 16] gave an IC50 of at most 5 nM.

In turn, `COC(=O)N[C@H](C(=O)N1C[C@@H](C)C[C@H]1c1nc(CCc2ccc(CCc3c[nH]c([C@@H]4C[C@H](C)CN4C(=O)[C@@H](NC(=O)OC)C(C)C)n3)cc2)c[nH]1)C(C)C` [Compound 17] had an IC50 of 5 to 5000 nM.

The molecule `COC(=O)N[C@H](C(=O)N1C[C@@H](C)C[C@H]1c1nc(C)c(C#Cc2ccc(C#Cc3[nH]c([C@@H]4C[C@H](C)CN4C(=O)[C@@H](NC(=O)OC)C(C)C)nc3C)cc2)[nH]1)C(C)C` [Compound 18] came in with an IC50 of at most 5 nM.

Regarding `COC(=O)N[C@H](C(=O)N1CCC[C@H]1c1nc(C)c(C#Cc2ccc(C#Cc3[nH]c([C@@H]4CCCN4C(=O)[C@@H](NC(=O)OC)C(C)C)nc3C)cc2)[nH]1)C(C)C` [Compound 19], the IC50 is at most 5 nM.

`COC(=O)N[C@H](C(=O)N1C[C@@H](C)C[C@H]1c1ncc(C#Cc2ccc(C#Cc3[nH]c([C@@H]4C[C@H](C)CN4C(=O)[C@@H](NC(=O)OC)C(C)C)nc3I)cc2)[nH]1)C(C)C` [Compound 20] came in with an IC50 of at most 5 nM.

`COC(=O)N[C@H](C(=O)N1C[C@@H](C)C[C@H]1c1nc(I)c(C#Cc2ccc(C#Cc3[nH]c([C@@H]4C[C@H](C)CN4C(=O)[C@@H](NC(=O)OC)C(C)C)nc3I)cc2)[nH]1)C(C)C` [Compound 21] came in with an IC50 of at most 5 nM.

In turn, `C[C@H]1C[C@@H](c2ncc(C#Cc3ccc(C#Cc4cnc([C@@H]5C[C@H](C)CN5C(=O)OC(C)(C)C)[nH]4)cc3)[nH]2)N(C(=O)OC(C)(C)C)C1` [Compound 23] had an IC50 of 5 to 5000 nM.

In turn, `C[C@@H]1CN[C@H](c2ncc(C#Cc3ccc(C#Cc4cnc([C@@H]5C[C@H](C)CN5)[nH]4)cc3)[nH]2)C1` [Compound 24] gave a concentration for half-maximal inhibition (IC50) of 5 to 5000 nM.

The molecule `COC(=O)N[C@H](C(=O)N1C[C@@H](C)C[C@H]1c1nc(-c2cc3sc(-c4c[nH]c([C@@H]5C[C@H](C)CN5C(=O)[C@@H](NC(=O)OC)C(C)C)n4)cc3s2)c[nH]1)C(C)C` [Compound 26] displayed an IC50 of at most 5 nM.

For the molecule `COC(=O)N[C@H](C(=O)N1C[C@@H](C)C[C@@H]1c1ncc(C#Cc2ccc(C#Cc3cnc([C@@H]4C[C@@H](C)CN4C(=O)[C@@H](NC(=O)OC)C(C)C)[nH]3)cc2)[nH]1)C(C)C` [Compound 27], the IC50 is 5 to 5000 nM.

`COC(=O)N[C@H](C(=O)N1C[C@H](C)C[C@H]1c1nc(C)c(C#Cc2ccc(C#Cc3[nH]c([C@@H]4C[C@@H](C)CN4C(=O)[C@@H](NC(=O)OC)C(C)C)nc3C)cc2)[nH]1)C(C)C` [Compound 28] had an IC50 of at most 5 nM.

In the case of `COC(=O)N[C@H](C(=O)N1C[C@@H](C)C[C@H]1c1nc(C)c(C#Cc2cc(F)c(C#Cc3[nH]c([C@@H]4C[C@H](C)CN4C(=O)[C@@H](NC(=O)OC)C(C)C)nc3C)cc2F)[nH]1)C(C)C` [Compound 29], the IC50 is at most 5 nM.

In turn, `COC(=O)N[C@H](C(=O)N1C[C@@H](C)C[C@H]1c1nc(C)c(C#Cc2ccc(C#Cc3[nH]c([C@@H]4C[C@H](C)CN4C(=O)[C@@H](NC(=O)OC)C(C)C)nc3C)c(F)c2)[nH]1)C(C)C` [Compound 31] yielded an IC50 of at most 5 nM.

Turning to `COC(=O)N[C@@H](C(=O)N1C[C@@H](C)C[C@H]1c1ncc(C#Cc2ccc(C#Cc3cnc([C@@H]4C[C@H](C)CN4C(=O)[C@H](NC(=O)OC)C(C)C)[nH]3)cc2)[nH]1)C(C)C` [Compound 32], the IC50 is 5 to 5000 nM.

Turning to `COC(=O)N[C@H](C(=O)N1C[C@@H](C)C[C@H]1c1ncc(C#Cc2ccc(C#Cc3cnc([C@@H]4C[C@H](C)CN4C(=O)[C@H](NC(=O)OC)C(C)C)[nH]3)cc2)[nH]1)C(C)C` [Compound 33], the IC50 was at most 5 nM.

For `COC(=O)N[C@H](C(=O)N1C[C@@H](C)C[C@H]1c1ncc(C#Cc2ccc(C#Cc3cnc([C@@H]4C[C@H](C)CN4C(=O)[C@@H](NC(=O)OC)C(C)C)[nH]3)c(F)c2)[nH]1)C(C)C` [Compound 36], the IC50 was at most 5 nM.

Molecule `COC(=O)N[C@H](C(=O)N1C[C@@H](C)C[C@H]1c1nc(C)c(C#Cc2ccc3cc(C#Cc4[nH]c([C@@H]5C[C@H](C)CN5C(=O)[C@@H](NC(=O)OC)C(C)C)nc4C)ccc3c2)[nH]1)C(C)C` [Compound 37] came in with an IC50 of at most 5 nM.

As to `COC(=O)N[C@H](C(=O)N1C[C@H](C)C[C@H]1c1ncc(C#Cc2ccc(C#Cc3cnc([C@@H]4C[C@H](C)CN4C(=O)[C@@H](NC(=O)OC)C(C)C)[nH]3)cc2)[nH]1)C(C)C` [Compound 38], the 50% inhibitory concentration (IC50) was at most 5 nM.

For `COC(=O)N[C@H](C(=O)N1C[C@@H](C)C[C@H]1c1ncc(C#Cc2ccc(C#Cc3cnc([C@@H]4C[C@H](C)CN4)[nH]3)cc2)[nH]1)C(C)C` [Compound 39], the IC50 fell in the range of 5 to 5000 nM.

In turn, `COC(=O)N[C@H](C(=O)N1C[C@@H](C)C[C@H]1c1ncc(C#Cc2ccc(C#Cc3cnc([C@@H]4C[C@H](C)CN4C(=O)[C@@H](NC(=O)OC)C(C)C)[nH]3)c3nsnc23)[nH]1)C(C)C` [Compound 40] showed an IC50 of at most 5 nM.

What is called IC50 is the concentration needed to halve the response being measured. A low value points to greater potency in that assay.

The record behind these values is patent US20130072523A1, “ANALOGUES FOR THE TREATMENT OR PREVENTION OF FLAVIVIRUS INFECTIONS” (VERTEX PHARMACEUTICALS INCORPORATED, priority 2009, published 2013).
